Measurements: the supplement of paper PMC10307832

compound: Cc1nc(NC(=O)N2CCC[C@H]2C(N)=O)sc1-c1ccnc(C(C)(C)C(F)(F)F)c1 [Alpelisib] + COc1cccc2cc(-c3nc([C@H]4CC[C@H](C(=O)O)CC4)n4ncnc(N)c34)[nH]c12 [OSI-027] (partner 0.5 µM); assay: relative viability (nuclei count vs DMSO), 5 days (fraction); higher = more cells survive; conditions: first compound 0.04 µM
Method in brief: (§1)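 Lung cancer cell lines in 1536-well plates got either a single drug or a fixed anchor-drug dose together with five library-drug doses (not always all listed) in √10 steps, by pin tool, on the day after seeding. Nuclei were counted after 5 days, and relative viability is the treated-to-vehicle ratio of nuclei counts. Values are medians of duplicate plates.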

Cell Line	relative viability
NCI-H2126	0.796
EPLC-272H	0.214
NCI-H1755	0.684
NCI-H2023	0.357
NCI-H1623	0.494
NCI-H1650	0.637
NCI-H1793	0.284
NCI-H2342	0.626
H3255	0.526
NCI-H1975	0.675
PC-14	0.865
NCI-H1437	0.796
HOP-62	0.822
HCC-44	0.519
BEN	0.295
LOU-NH91	0.754
NCI-H661	0.628

Cell Line	relative viability
NCI-H1651	0.638
PC-3 [JPC-3]	0.831
SW 1573	0.661
LK-2	0.215
NCI-H2405	0.588
NCI-H1993	0.596
ChaGo-K-1	0.543
NCI-H1355	0.406
ABC-1	0.475
LCLC-103H	0.486
NCI-H522	0.722
NCI-H1563	0.743
NCI-H358	0.558
NCI-H650	0.552
NCI-H596	0.629
SW 900	0.527

same assay, conditions: first compound 0.1265 µM

Cell Line	relative viability
NCI-H2126	0.67
EPLC-272H	0.268
NCI-H1755	0.575
NCI-H2023	0.33
NCI-H1623	0.338
NCI-H1650	0.561
NCI-H1793	0.24
NCI-H2342	0.594
H3255	0.583
NCI-H1975	0.714
PC-14	0.83
NCI-H1437	0.842
HOP-62	0.793
HCC-44	0.419
BEN	0.299
LOU-NH91	0.601
NCI-H661	0.668

Cell Line	relative viability
NCI-H1651	0.688
PC-3 [JPC-3]	0.642
SW 1573	0.438
LK-2	0.208
NCI-H2405	0.534
NCI-H1648	0.229
NCI-H1993	0.492
ChaGo-K-1	0.592
NCI-H1355	0.325
ABC-1	0.347
LCLC-103H	0.439
NCI-H522	0.622
NCI-H1563	0.774
NCI-H358	0.767
NCI-H650	0.435
NCI-H596	0.571
SW 900	0.524

same assay, conditions: first compound 0.4 µM

Cell Line	relative viability
NCI-H2126	0.667
EPLC-272H	0.274
NCI-H1755	0.719
NCI-H2023	0.311
NCI-H1623	0.383
NCI-H1650	0.529
NCI-H1793	0.228
NCI-H2342	0.553
H3255	0.635
NCI-H1975	0.656
PC-14	0.985
NCI-H1437	0.754
HOP-62	0.949
HCC-44	0.541
BEN	0.276
LOU-NH91	0.638
NCI-H661	0.709

Cell Line	relative viability
NCI-H1651	0.646
PC-3 [JPC-3]	0.68
SW 1573	0.571
LK-2	0.16
NCI-H2405	0.639
NCI-H1648	0.244
NCI-H1993	0.524
ChaGo-K-1	0.49
NCI-H1355	0.311
ABC-1	0.418
LCLC-103H	0.435
NCI-H522	0.605
NCI-H1563	0.7
NCI-H358	0.572
NCI-H650	0.488
NCI-H596	0.589
SW 900	0.742

same assay, conditions: first compound 1.265 µM

Cell Line	relative viability
NCI-H2126	0.576
EPLC-272H	0.23
NCI-H1755	0.55
NCI-H2023	0.192
NCI-H1623	0.34
NCI-H1650	0.433
NCI-H1793	0.195
NCI-H2342	0.559
H3255	0.363
NCI-H1975	0.326
PC-14	0.574
NCI-H1437	0.527
HOP-62	0.626
HCC-44	0.307
BEN	0.315
LOU-NH91	0.543
NCI-H661	0.523

Cell Line	relative viability
NCI-H1651	0.569
PC-3 [JPC-3]	0.593
SW 1573	0.404
LK-2	0.142
NCI-H2405	0.417
NCI-H1648	0.282
NCI-H1993	0.571
ChaGo-K-1	0.394
NCI-H1355	0.285
ABC-1	0.283
LCLC-103H	0.372
NCI-H522	0.629
NCI-H1563	0.584
NCI-H358	0.292
NCI-H650	0.357
NCI-H596	0.457
SW 900	0.568

same assay, conditions: first compound 4 µM

Cell Line	relative viability
NCI-H2126	0.38
EPLC-272H	0.195
NCI-H1755	0.509
NCI-H2023	0.156
NCI-H1623	0.28
NCI-H1650	0.374
NCI-H1793	0.161
NCI-H2342	0.421
H3255	0.384
NCI-H1975	0.228
PC-14	0.467
NCI-H1437	0.319
HOP-62	0.589
HCC-44	0.451
BEN	0.245
LOU-NH91	0.49
NCI-H661	0.493

Cell Line	relative viability
NCI-H1651	0.473
PC-3 [JPC-3]	0.488
SW 1573	0.337
LK-2	0.158
NCI-H2405	0.384
NCI-H1648	0.228
NCI-H1993	0.521
ChaGo-K-1	0.342
NCI-H1355	0.235
ABC-1	0.356
LCLC-103H	0.335
NCI-H522	0.5
NCI-H1563	0.541
NCI-H358	0.121
NCI-H650	0.325
NCI-H596	0.357
SW 900	0.45

compound: Cc1nc(NC(=O)N2CCC[C@H]2C(N)=O)sc1-c1ccnc(C(C)(C)C(F)(F)F)c1 [Alpelisib] + O=C(c1cc(Cc2n[nH]c(=O)c3ccccc23)ccc1F)N1CCN(C(=O)C2CC2)CC1 [Olaparib] (partner 8 µM); assay: as above; conditions: first compound 0.04 µM
Method in brief: as §1

Cell Line	relative viability
NCI-H2126	0.887
EPLC-272H	0.936
NCI-H1755	0.928
NCI-H2023	0.436
NCI-H1650	0.878
NCI-H1793	0.805
NCI-H2342	0.448
H3255	0.571
NCI-H1975	0.689
PC-14	0.263
NCI-H1299	1
NCI-H1437	0.64
HOP-62	0.533
HCC-44	0.979
BEN	1.18
LOU-NH91	0.915
NCI-H661	0.734
NCI-H1651	0.182
PC-3 [JPC-3]	1.23

Cell Line	relative viability
SW 1573	0.431
LK-2	0.636
NCI-H2405	0.905
NCI-H1703	0.415
NCI-H1648	0.887
NCI-H1993	1.01
ChaGo-K-1	0.435
NCI-H1355	0.747
ABC-1	0.775
LCLC-103H	0.766
Calu-6	0.602
NCI-H522	0.795
NCI-H358	0.665
EBC-1	0.682
A549	0.301
IA-LM	1.03
NCI-H650	0.391
NCI-H596	0.705
SW 900	0.878

same assay, conditions: first compound 0.1265 µM

Cell Line	relative viability
NCI-H2126	0.864
EPLC-272H	0.838
NCI-H1755	0.892
NCI-H2023	0.432
NCI-H1650	0.786
NCI-H1793	0.714
NCI-H2342	0.429
H3255	0.59
NCI-H1975	0.859
PC-14	0.348
NCI-H1299	0.96
NCI-H1437	0.684
HOP-62	0.435
HCC-44	0.943
BEN	1.18
LOU-NH91	0.87
NCI-H661	0.773
NCI-H1651	0.188

Cell Line	relative viability
PC-3 [JPC-3]	1.1
SW 1573	0.455
LK-2	0.464
NCI-H2405	0.864
NCI-H1703	0.335
NCI-H1648	0.758
NCI-H1993	0.868
ChaGo-K-1	0.42
NCI-H1355	0.727
ABC-1	0.596
LCLC-103H	0.787
Calu-6	0.529
NCI-H522	0.693
NCI-H358	0.578
EBC-1	0.74
IA-LM	0.857
NCI-H650	0.409
NCI-H596	0.701

same assay, conditions: first compound 0.4 µM

Cell Line	relative viability
NCI-H2126	0.871
EPLC-272H	0.75
NCI-H1755	0.917
NCI-H2023	0.479
NCI-H1650	0.932
NCI-H1793	0.685
NCI-H2342	0.405
H3255	0.651
NCI-H1975	0.838
PC-14	0.512
NCI-H1299	1.01
NCI-H1437	0.679
HOP-62	0.532
HCC-44	1.07
BEN	1.22
LOU-NH91	0.844
NCI-H661	0.878
NCI-H1651	0.203
PC-3 [JPC-3]	1.24

Cell Line	relative viability
SW 1573	0.406
LK-2	0.74
NCI-H2405	0.898
NCI-H1703	0.296
NCI-H1648	1.13
NCI-H1993	1.13
ChaGo-K-1	0.426
NCI-H1355	0.807
ABC-1	1.01
LCLC-103H	0.744
Calu-6	0.646
NCI-H522	0.529
NCI-H358	0.544
EBC-1	0.655
A549	0.434
IA-LM	0.776
NCI-H650	0.425
NCI-H596	0.778
SW 900	0.974

same assay, conditions: first compound 1.265 µM

Cell Line	relative viability
NCI-H2126	0.76
EPLC-272H	0.393
NCI-H1755	0.818
NCI-H2023	0.383
NCI-H1650	0.523
NCI-H1793	0.495
NCI-H2342	0.367
H3255	0.538
NCI-H1975	0.563
PC-14	0.276
NCI-H1299	0.896
NCI-H1437	0.627
HOP-62	0.282
HCC-44	0.979
BEN	1.02
LOU-NH91	0.65
NCI-H661	0.732
NCI-H1651	0.198
PC-3 [JPC-3]	0.967
SW 1573	0.341
LK-2	0.301
NCI-H2405	0.657
NCI-H1703	0.204
NCI-H1648	0.4
NCI-H1993	0.585
ChaGo-K-1	0.417
NCI-H1355	0.629
